{"source": "patent US11767310B2", "about": "“Nicotinamide RIPK1 inhibitors” (AbbVie Inc., priority 2021, dated 2023)", "experiment_in_all_cases": "Kinase binding screen", "conditions_in_all_cases": "read-out: Percent Control at 100 nM Compound Concentration", "key": {"[1]": {"target": "ABL1(F317I)-nonphosphorylated (Homo sapiens (Human), UniProt P00519, F317I)"}, "ADCK4": {"target": "ADCK4 (Homo sapiens (Human), UniProt Q96D53)", "sequence (Q96D53 whole entry)": "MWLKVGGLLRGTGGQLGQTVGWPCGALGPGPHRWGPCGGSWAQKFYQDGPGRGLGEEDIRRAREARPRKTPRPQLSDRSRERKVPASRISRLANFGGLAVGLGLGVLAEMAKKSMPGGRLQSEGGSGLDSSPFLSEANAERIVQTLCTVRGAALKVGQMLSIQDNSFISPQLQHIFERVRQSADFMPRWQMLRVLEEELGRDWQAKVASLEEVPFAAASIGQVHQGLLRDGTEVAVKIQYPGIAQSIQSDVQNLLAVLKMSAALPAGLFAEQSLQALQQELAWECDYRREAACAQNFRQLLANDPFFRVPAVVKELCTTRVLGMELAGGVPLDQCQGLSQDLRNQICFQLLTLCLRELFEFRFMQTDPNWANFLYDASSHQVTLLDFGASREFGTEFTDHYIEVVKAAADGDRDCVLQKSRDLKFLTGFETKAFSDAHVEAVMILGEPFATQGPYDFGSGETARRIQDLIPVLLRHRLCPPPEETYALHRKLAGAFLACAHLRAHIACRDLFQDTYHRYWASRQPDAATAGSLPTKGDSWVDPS"}, "BRAF(V600E)": {"target": "BRAF(V600E) (Homo sapiens (Human), UniProt P15056, V600E)"}, "BRK": {"target": "BRK (Homo sapiens (Human), UniProt Q13882)"}, "BUB1": {"target": "BUB1 (Homo sapiens (Human), UniProt O43683)"}, "CLK4": {"target": "CLK4 (Homo sapiens (Human), UniProt Q9HAZ1)", "sequence (Q9HAZ1 whole entry)": "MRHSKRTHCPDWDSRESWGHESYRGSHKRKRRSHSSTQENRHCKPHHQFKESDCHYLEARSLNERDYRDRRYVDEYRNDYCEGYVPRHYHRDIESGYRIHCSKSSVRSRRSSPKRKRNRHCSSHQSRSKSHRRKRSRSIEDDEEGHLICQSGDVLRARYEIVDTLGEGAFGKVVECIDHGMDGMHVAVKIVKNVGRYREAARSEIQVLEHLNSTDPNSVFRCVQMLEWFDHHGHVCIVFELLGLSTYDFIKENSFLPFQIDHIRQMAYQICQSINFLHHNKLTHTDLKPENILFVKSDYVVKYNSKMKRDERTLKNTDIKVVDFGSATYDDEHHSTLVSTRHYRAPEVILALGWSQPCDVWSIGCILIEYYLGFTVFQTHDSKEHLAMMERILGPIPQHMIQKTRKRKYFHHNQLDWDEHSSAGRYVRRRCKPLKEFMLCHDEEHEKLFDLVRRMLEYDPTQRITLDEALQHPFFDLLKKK"}, "EGFR(L858R)": {"target": "EGFR(L858R) (Homo sapiens (Human), UniProt P00533, L858R)"}, "EGFR(L858R,T790M)": {"target": "EGFR(L858R,T790M) (Homo sapiens (Human), UniProt P00533, L858R/T790M)"}, "EGFR(L861Q)": {"target": "EGFR(L861Q) (Homo sapiens (Human), UniProt P00533, L861Q)"}, "EPHA5": {"target": "EPHA5 (Homo sapiens (Human), UniProt P54756)"}, "ERBB2": {"target": "ERBB2 (Homo sapiens (Human), UniProt P04626)"}, "ERK5": {"target": "ERK5 (Homo sapiens (Human), UniProt Q13164)"}, "HIPK1": {"target": "HIPK1 (Homo sapiens (Human), UniProt Q86Z02)", "sequence (Q86Z02 whole entry)": "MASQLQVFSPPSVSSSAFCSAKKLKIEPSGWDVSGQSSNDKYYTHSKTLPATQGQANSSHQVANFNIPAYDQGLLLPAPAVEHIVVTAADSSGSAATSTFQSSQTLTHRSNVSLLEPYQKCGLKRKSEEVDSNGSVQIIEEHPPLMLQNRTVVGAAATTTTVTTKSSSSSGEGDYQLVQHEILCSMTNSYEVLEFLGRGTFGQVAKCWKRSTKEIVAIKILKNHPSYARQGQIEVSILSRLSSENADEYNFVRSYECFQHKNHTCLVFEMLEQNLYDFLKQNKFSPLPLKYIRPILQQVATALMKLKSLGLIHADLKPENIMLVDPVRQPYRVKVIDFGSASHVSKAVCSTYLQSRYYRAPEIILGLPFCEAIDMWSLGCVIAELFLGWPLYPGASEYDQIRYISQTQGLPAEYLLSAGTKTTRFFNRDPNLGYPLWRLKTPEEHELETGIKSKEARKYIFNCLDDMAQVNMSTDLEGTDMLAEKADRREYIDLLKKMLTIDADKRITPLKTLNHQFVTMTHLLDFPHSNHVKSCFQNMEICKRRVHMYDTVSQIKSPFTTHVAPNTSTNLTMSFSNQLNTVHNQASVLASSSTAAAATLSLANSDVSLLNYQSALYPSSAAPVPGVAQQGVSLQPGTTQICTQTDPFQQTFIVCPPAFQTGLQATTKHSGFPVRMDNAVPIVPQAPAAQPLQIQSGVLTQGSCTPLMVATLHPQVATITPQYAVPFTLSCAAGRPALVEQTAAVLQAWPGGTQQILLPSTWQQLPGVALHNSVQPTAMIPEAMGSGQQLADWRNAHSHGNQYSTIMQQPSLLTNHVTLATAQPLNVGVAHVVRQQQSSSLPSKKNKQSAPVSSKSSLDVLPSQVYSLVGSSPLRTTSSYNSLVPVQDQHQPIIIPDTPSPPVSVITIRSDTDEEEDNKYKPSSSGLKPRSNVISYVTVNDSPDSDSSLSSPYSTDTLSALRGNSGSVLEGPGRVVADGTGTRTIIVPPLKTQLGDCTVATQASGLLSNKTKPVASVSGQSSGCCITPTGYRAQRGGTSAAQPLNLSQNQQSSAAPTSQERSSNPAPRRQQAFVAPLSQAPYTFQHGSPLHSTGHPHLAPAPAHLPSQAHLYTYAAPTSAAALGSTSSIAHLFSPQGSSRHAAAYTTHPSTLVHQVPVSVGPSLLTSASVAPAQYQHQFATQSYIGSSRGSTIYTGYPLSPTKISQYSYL"}, "LKB1": {"target": "LKB1 (Homo sapiens (Human), UniProt Q15831)", "sequence (Q15831 whole entry)": "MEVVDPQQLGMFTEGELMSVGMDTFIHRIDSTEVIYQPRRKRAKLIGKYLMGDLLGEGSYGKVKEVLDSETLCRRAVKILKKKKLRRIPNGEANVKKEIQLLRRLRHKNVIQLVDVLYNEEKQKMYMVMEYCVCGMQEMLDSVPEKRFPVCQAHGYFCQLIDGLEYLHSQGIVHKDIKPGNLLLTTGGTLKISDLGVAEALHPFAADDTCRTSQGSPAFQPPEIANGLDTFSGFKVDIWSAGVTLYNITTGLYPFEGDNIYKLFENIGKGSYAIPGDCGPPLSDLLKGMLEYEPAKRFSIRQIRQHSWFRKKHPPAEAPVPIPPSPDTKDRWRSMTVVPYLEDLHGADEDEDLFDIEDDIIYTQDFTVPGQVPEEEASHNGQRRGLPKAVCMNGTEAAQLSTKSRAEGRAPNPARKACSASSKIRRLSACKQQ"}, "MEK1": {"target": "MEK1 (Homo sapiens (Human), UniProt Q02750)", "sequence (Q02750 whole entry)": "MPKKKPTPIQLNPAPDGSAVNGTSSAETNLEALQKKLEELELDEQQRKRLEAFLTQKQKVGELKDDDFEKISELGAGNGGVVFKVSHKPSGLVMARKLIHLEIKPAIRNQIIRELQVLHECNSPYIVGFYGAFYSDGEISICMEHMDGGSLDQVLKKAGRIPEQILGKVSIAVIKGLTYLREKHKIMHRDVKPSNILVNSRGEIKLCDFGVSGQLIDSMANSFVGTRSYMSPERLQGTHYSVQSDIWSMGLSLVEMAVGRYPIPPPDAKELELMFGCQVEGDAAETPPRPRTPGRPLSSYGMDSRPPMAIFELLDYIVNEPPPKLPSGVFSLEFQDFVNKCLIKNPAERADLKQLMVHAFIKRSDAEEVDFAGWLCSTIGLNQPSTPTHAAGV"}, "MST1": {"target": "MST1 (Homo sapiens (Human), UniProt Q13043)", "sequence (Q13043 whole entry)": "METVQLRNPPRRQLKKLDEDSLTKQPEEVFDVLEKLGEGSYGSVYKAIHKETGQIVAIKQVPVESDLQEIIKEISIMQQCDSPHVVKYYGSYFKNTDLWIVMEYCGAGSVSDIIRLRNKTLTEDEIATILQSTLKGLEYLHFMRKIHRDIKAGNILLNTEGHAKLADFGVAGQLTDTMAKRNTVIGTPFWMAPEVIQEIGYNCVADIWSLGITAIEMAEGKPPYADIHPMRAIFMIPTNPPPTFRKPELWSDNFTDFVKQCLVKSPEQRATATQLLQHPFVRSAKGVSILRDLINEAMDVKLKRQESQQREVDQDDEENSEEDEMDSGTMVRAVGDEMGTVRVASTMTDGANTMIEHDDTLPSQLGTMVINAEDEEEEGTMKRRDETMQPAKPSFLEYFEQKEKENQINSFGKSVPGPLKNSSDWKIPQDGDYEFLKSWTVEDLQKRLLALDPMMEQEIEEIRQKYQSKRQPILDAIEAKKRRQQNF"}, "NEK10": {"target": "NEK10 (Homo sapiens (Human), UniProt Q6ZWH5)"}, "NEK7": {"target": "NEK7 (Homo sapiens (Human), UniProt Q8TDX7)"}, "NIK": {"target": "NIK (Homo sapiens (Human), UniProt Q99558)", "sequence (Q99558 whole entry)": "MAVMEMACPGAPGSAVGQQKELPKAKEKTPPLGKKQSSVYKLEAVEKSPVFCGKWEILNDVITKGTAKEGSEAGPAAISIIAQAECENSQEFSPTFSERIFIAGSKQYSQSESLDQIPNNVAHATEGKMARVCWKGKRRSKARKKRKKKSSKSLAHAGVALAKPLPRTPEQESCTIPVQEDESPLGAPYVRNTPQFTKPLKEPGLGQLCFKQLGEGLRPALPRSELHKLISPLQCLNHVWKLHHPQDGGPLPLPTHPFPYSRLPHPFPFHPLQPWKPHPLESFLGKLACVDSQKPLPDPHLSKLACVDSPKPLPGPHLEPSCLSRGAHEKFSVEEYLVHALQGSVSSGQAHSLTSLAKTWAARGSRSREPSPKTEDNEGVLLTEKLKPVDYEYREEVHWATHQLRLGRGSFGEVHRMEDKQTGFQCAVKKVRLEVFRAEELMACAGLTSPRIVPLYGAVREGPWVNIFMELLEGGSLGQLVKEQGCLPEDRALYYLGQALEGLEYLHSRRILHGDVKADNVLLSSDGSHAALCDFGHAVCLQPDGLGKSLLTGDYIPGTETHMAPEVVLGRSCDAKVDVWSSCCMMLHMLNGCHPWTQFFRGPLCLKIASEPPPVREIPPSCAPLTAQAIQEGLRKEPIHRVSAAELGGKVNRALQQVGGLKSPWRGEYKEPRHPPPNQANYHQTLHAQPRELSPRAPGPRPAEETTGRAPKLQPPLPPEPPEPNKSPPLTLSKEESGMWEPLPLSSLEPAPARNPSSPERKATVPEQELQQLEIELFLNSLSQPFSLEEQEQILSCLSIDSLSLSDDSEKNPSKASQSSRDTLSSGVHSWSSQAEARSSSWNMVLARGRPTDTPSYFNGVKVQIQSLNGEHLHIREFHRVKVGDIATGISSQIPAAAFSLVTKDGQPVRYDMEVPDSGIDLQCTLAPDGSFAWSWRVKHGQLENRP"}, "PAK2": {"target": "PAK2 (Homo sapiens (Human), UniProt Q13177)", "sequence (Q13177 whole entry)": "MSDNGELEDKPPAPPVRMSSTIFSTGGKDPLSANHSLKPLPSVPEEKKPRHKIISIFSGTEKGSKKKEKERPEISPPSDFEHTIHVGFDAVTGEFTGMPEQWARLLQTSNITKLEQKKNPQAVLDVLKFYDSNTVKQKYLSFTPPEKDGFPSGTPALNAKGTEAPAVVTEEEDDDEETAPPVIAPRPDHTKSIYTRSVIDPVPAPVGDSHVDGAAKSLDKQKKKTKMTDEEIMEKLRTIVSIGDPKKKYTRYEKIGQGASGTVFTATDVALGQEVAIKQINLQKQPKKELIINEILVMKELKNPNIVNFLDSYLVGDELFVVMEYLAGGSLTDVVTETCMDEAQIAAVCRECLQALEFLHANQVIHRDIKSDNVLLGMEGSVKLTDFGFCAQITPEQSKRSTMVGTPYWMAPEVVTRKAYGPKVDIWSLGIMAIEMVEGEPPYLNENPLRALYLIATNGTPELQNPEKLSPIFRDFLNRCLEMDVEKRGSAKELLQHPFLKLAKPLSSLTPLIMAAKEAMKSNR"}, "PIK3CG": {"target": "PIK3CG (Homo sapiens (Human), UniProt P48736)"}, "PIKFYVE": {"target": "PIKFYVE (Homo sapiens (Human), UniProt Q9Y2I7)"}, "PKN2": {"target": "PKN2 (Homo sapiens (Human), UniProt Q16513)"}, "PLK3": {"target": "PLK3 (Homo sapiens (Human), UniProt Q9H4B4)"}, "RIPK2": {"target": "RIPK2 (Homo sapiens (Human), UniProt O43353)"}, "SIK2": {"target": "SIK2 (Homo sapiens (Human), UniProt Q9H0K1)"}, "SNARK": {"target": "SNARK (Homo sapiens (Human), UniProt Q9H093)"}, "TTK": {"target": "TTK (Homo sapiens (Human), UniProt P33981)"}, "YSK1": {"target": "YSK1 (Homo sapiens (Human), UniProt O00506)"}}, "note": "Like-named read-outs stand apart in the source and are kept apart here."}
{"molecule": "CN(C[C@@H](O)Cc1ccccc1)C(=O)c1cncc(C#Cc2cnn(C(F)F)c2)c1", "note": "[Example 2, (S)-5-((1-(difluoromethyl)-1H-pyrazol-4-yl)ethynyl)-N-(2-hydroxy-3-phenylpropyl)-N-methylnicotinamide]", "values": [{"measurement": "remaining activity at 0.1 µM", "setting": "[1]; ABL1(F317I)-nonphosphorylated", "value": 100, "unit": "%"}, {"measurement": "remaining activity at 0.1 µM", "setting": "ADCK4; ADCK4", "value": 100, "unit": "%"}, {"measurement": "remaining activity at 0.1 µM", "setting": "BRAF(V600E); BRAF(V600E)", "value": 97, "unit": "%"}, {"measurement": "remaining activity at 0.1 µM", "setting": "BRK; BRK", "value": 100, "unit": "%"}, {"measurement": "remaining activity at 0.1 µM", "setting": "BUB1; BUB1", "value": 93, "unit": "%"}, {"measurement": "remaining activity at 0.1 µM", "setting": "CLK4; CLK4", "value": 92, "unit": "%"}, {"measurement": "remaining activity at 0.1 µM", "setting": "EGFR(L858R); EGFR(L858R)", "value": 100, "unit": "%"}, {"measurement": "remaining activity at 0.1 µM", "setting": "EGFR(L858R,T790M); EGFR(L858R,T790M)", "value": 83, "unit": "%"}, {"measurement": "remaining activity at 0.1 µM", "setting": "EGFR(L861Q); EGFR(L861Q)", "value": 100, "unit": "%"}, {"measurement": "remaining activity at 0.1 µM", "setting": "EPHA5; EPHA5", "value": 100, "unit": "%"}, {"measurement": "remaining activity at 0.1 µM", "setting": "ERBB2; ERBB2", "value": 70, "unit": "%"}, {"measurement": "remaining activity at 0.1 µM", "setting": "ERK5; ERK5", "value": 100, "unit": "%"}, {"measurement": "remaining activity at 0.1 µM", "setting": "HIPK1; HIPK1", "value": 72, "unit": "%"}, {"measurement": "remaining activity at 0.1 µM", "setting": "LKB1; LKB1", "value": 70, "unit": "%"}, {"measurement": "remaining activity at 0.1 µM", "setting": "MEK1; MEK1", "value": 98, "unit": "%"}, {"measurement": "remaining activity at 0.1 µM", "setting": "MST1; MST1", "value": 100, "unit": "%"}, {"measurement": "remaining activity at 0.1 µM", "setting": "NEK10; NEK10", "value": 91, "unit": "%"}, {"measurement": "remaining activity at 0.1 µM", "setting": "NEK7; NEK7", "value": 100, "unit": "%"}, {"measurement": "remaining activity at 0.1 µM", "setting": "NIK; NIK", "value": 84, "unit": "%"}, {"measurement": "remaining activity at 0.1 µM", "setting": "PAK2; PAK2", "value": 97, "unit": "%"}, {"measurement": "remaining activity at 0.1 µM", "setting": "PIK3CG; PIK3CG", "value": 100, "unit": "%"}, {"measurement": "remaining activity at 0.1 µM", "setting": "PIKFYVE; PIKFYVE", "value": 57, "unit": "%"}, {"measurement": "remaining activity at 0.1 µM", "setting": "PKN2; PKN2", "value": 97, "unit": "%"}, {"measurement": "remaining activity at 0.1 µM", "setting": "PLK3; PLK3", "value": 97, "unit": "%"}, {"measurement": "remaining activity at 0.1 µM", "setting": "RIPK2; RIPK2", "value": 100, "unit": "%"}, {"measurement": "remaining activity at 0.1 µM", "setting": "SIK2; SIK2", "value": 89, "unit": "%"}, {"measurement": "remaining activity at 0.1 µM", "setting": "SNARK; SNARK", "value": 99, "unit": "%"}, {"measurement": "remaining activity at 0.1 µM", "setting": "TTK; TTK", "value": 100, "unit": "%"}, {"measurement": "remaining activity at 0.1 µM", "setting": "YSK1; YSK1", "value": 100, "unit": "%"}]}
{"molecule": "CN(C[C@H](Cc1ccccc1)OP(=O)(O)O)C(=O)c1cncc(C#Cc2cnn(C(F)F)c2)c1", "note": "[Example 19, (S)-1-(5-((1-(difluoromethyl)-1H-pyrazol-4-yl)ethynyl)-N-methylnicotinamido)-3-phenylpropan-2-yl dihydrogen phosphate]", "values": [{"measurement": "remaining activity at 0.1 µM", "setting": "[1]", "value": 100, "unit": "%"}, {"measurement": "remaining activity at 0.1 µM", "setting": "ADCK4", "value": 100, "unit": "%"}, {"measurement": "remaining activity at 0.1 µM", "setting": "BRAF(V600E)", "value": 97, "unit": "%"}, {"measurement": "remaining activity at 0.1 µM", "setting": "BRK", "value": 100, "unit": "%"}, {"measurement": "remaining activity at 0.1 µM", "setting": "BUB1", "value": 85, "unit": "%"}, {"measurement": "remaining activity at 0.1 µM", "setting": "CLK4", "value": 100, "unit": "%"}, {"measurement": "remaining activity at 0.1 µM", "setting": "EGFR(L858R)", "value": 94, "unit": "%"}, {"measurement": "remaining activity at 0.1 µM", "setting": "EGFR(L858R,T790M)", "value": 94, "unit": "%"}, {"measurement": "remaining activity at 0.1 µM", "setting": "EGFR(L861Q)", "value": 86, "unit": "%"}, {"measurement": "remaining activity at 0.1 µM", "setting": "EPHA5", "value": 100, "unit": "%"}, {"measurement": "remaining activity at 0.1 µM", "setting": "ERBB2", "value": 65, "unit": "%"}, {"measurement": "remaining activity at 0.1 µM", "setting": "ERK5", "value": 100, "unit": "%"}, {"measurement": "remaining activity at 0.1 µM", "setting": "HIPK1", "value": 82, "unit": "%"}, {"measurement": "remaining activity at 0.1 µM", "setting": "LKB1", "value": 79, "unit": "%"}, {"measurement": "remaining activity at 0.1 µM", "setting": "MEK1", "value": 99, "unit": "%"}, {"measurement": "remaining activity at 0.1 µM", "setting": "MST1", "value": 100, "unit": "%"}, {"measurement": "remaining activity at 0.1 µM", "setting": "NEK10", "value": 100, "unit": "%"}, {"measurement": "remaining activity at 0.1 µM", "setting": "NEK7", "value": 99, "unit": "%"}, {"measurement": "remaining activity at 0.1 µM", "setting": "NIK", "value": 88, "unit": "%"}, {"measurement": "remaining activity at 0.1 µM", "setting": "PAK2", "value": 92, "unit": "%"}, {"measurement": "remaining activity at 0.1 µM", "setting": "PIK3CG", "value": 100, "unit": "%"}, {"measurement": "remaining activity at 0.1 µM", "setting": "PIKFYVE", "value": 57, "unit": "%"}, {"measurement": "remaining activity at 0.1 µM", "setting": "PKN2", "value": 100, "unit": "%"}, {"measurement": "remaining activity at 0.1 µM", "setting": "PLK3", "value": 92, "unit": "%"}, {"measurement": "remaining activity at 0.1 µM", "setting": "RIPK2", "value": 100, "unit": "%"}, {"measurement": "remaining activity at 0.1 µM", "setting": "SIK2", "value": 96, "unit": "%"}, {"measurement": "remaining activity at 0.1 µM", "setting": "SNARK", "value": 99, "unit": "%"}, {"measurement": "remaining activity at 0.1 µM", "setting": "TTK", "value": 82, "unit": "%"}, {"measurement": "remaining activity at 0.1 µM", "setting": "YSK1", "value": 97, "unit": "%"}]}
